Test results taken from ChEMBL document CHEMBL5058643, “Data for DCP probe BI-2081” (2022).

Legend:
[1] = molecular target: T1, Alpha-2B adrenergic receptor (Homo sapiens) (UniProt P18089); test: ALPHA2B/H Eurofins SafetyScreen44 (BI)
T1 sequence (whole entry): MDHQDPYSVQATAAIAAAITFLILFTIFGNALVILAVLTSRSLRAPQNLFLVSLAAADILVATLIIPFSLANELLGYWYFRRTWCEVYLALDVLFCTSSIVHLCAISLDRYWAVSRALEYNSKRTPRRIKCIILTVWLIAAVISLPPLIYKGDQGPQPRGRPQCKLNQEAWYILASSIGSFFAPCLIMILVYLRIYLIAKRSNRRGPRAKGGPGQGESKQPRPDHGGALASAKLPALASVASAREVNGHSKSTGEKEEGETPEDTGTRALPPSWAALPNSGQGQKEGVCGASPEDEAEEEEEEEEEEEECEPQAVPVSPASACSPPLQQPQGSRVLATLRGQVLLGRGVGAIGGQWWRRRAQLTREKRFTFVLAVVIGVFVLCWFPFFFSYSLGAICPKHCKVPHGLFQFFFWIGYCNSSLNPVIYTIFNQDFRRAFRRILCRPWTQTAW

[2] = molecular target: Gamma-aminobutyric acid receptor subunit alpha-1 (Rattus norvegicus) (UniProt P62813); test: GABAACENTR Eurofins SafetyScreen44 (BI); details: Compound concentration 10.0 uM
Gamma-aminobutyric acid receptor subunit alpha-1 (Rattus norvegicus), sequence (P62813 whole entry): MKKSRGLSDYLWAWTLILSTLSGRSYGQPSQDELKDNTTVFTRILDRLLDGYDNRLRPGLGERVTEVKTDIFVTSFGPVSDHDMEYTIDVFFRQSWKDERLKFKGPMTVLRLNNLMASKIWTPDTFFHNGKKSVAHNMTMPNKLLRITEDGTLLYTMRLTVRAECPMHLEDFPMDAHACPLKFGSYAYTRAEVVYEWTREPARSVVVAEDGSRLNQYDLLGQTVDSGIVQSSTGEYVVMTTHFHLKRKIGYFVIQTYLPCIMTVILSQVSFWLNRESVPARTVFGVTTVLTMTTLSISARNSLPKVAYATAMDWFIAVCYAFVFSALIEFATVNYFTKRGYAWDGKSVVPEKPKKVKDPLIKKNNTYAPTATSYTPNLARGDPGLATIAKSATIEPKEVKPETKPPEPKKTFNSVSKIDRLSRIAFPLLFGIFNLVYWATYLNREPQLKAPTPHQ

[3] = molecular target: Histamine H1 receptor (Homo sapiens) (UniProt P35367); test: H1/H Eurofins SafetyScreen44 (BI)
Histamine H1 receptor (Homo sapiens), sequence (P35367 whole entry, canonical isoform): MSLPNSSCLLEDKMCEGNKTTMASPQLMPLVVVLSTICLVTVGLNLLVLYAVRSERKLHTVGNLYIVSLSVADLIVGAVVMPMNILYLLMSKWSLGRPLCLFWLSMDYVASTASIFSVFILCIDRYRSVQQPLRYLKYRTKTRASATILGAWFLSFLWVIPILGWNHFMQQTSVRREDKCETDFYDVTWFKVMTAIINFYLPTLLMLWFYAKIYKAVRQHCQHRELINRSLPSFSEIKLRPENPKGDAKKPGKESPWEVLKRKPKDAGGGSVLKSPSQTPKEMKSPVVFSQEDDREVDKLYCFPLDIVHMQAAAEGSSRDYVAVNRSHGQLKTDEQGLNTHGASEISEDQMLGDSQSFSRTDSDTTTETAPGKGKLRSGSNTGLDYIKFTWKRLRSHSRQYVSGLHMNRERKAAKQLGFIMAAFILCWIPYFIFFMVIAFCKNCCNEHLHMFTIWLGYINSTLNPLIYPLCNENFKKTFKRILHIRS

[4] = molecular target: ATP-sensitive inward rectifier potassium channel 1 isoform X1 (Mesocricetus auratus) (UniProt A0A1U8CU73); test: K+/KATP/HA Eurofins SafetyScreen44 (BI); details: Cricetinae; Compound concentration 10.0 uM
[5] = molecular target: T2, Muscarinic acetylcholine receptor M1 (Homo sapiens) (UniProt P11229); test: M1/HU Eurofins SafetyScreen44 (BI); details: Compound concentration 10.0 uM
T2 sequence (whole entry): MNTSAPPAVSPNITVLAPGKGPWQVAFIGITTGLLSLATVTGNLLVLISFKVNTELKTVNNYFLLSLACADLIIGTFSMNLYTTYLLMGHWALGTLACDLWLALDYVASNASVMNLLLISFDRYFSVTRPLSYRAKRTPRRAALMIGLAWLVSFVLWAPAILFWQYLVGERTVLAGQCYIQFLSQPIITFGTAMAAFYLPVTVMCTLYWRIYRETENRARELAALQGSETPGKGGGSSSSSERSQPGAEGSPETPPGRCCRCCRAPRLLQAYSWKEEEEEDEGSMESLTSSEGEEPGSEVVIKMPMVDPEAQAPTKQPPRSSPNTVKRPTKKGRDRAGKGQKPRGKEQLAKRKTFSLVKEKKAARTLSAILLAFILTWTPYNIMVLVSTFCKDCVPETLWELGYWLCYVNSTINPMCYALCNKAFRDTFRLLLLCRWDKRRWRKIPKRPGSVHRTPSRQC

[6] = molecular target: Nicotinic acetylcholine receptor alpha-1/beta-1 (Homo sapiens) (UniProt P02708+P11230); test: NACH_BS_N/H Eurofins SafetyScreen44 (BI); assay type: protein-complex assay; details: Compound concentration 10.0 uM
[7] = molecular target: P2Y purinoceptor 1 (Rattus norvegicus) (UniProt P49651); test: P2Y/RAT Eurofins SafetyScreen44 (BI); details: Compound concentration 10.0 uM
P2Y purinoceptor 1 (Rattus norvegicus), sequence (P49651 whole entry): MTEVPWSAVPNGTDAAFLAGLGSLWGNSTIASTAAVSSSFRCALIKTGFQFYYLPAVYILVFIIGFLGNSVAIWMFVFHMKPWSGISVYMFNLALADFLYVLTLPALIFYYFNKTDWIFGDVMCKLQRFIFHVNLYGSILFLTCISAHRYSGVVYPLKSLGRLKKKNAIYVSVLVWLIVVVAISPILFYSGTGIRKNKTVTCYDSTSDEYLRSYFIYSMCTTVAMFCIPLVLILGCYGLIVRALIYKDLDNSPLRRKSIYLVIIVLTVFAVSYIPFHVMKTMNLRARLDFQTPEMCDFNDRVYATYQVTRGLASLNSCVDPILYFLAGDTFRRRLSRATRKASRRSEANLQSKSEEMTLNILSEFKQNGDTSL

[8] = molecular target: 3',5'-cyclic-AMP phosphodiesterase 4A (Rattus norvegicus) (UniProt P54748); test: ROLIPRAM/R Eurofins SafetyScreen44 (BI); details: Compound concentration 10.0 uM
3',5'-cyclic-AMP phosphodiesterase 4A (Rattus norvegicus), sequence (P54748 whole entry): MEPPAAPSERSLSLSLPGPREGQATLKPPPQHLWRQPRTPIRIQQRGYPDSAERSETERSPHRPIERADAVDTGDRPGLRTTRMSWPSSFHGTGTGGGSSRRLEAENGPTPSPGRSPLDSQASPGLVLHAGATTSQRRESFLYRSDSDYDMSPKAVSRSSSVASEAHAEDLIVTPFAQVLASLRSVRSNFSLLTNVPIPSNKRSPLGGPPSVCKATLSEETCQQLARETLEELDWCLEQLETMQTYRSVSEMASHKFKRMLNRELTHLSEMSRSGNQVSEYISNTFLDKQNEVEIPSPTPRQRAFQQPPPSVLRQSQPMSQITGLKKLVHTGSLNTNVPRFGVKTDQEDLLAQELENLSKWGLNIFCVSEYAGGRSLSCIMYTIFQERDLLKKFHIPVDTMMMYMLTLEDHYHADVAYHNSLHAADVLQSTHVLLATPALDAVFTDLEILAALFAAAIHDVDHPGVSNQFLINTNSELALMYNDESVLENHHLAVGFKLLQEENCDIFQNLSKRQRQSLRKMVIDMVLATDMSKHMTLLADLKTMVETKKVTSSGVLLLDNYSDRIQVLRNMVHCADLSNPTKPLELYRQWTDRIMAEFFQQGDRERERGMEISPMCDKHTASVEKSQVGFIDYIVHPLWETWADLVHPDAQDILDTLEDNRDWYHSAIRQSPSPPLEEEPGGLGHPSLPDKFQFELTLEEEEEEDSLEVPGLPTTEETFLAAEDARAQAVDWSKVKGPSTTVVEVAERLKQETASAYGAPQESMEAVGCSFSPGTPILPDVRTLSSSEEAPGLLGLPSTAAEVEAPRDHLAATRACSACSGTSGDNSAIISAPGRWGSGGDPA

[9] = molecular target: T3, 5-hydroxytryptamine receptor 3A (Homo sapiens) (UniProt P46098); details: Compound concentration 10.0 uM
T3 sequence (whole entry): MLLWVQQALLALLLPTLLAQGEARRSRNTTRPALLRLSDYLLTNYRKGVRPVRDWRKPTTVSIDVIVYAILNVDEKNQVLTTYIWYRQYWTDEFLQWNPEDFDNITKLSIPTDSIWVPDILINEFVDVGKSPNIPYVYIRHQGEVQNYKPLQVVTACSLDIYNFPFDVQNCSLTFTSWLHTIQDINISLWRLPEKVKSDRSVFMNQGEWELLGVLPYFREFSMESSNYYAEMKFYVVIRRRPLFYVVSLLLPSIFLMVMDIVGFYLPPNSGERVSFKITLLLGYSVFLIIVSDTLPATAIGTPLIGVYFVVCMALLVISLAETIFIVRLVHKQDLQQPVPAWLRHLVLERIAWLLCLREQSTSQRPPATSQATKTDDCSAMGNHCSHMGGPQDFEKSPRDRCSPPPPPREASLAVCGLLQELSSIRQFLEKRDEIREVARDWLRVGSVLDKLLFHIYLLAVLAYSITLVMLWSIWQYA

[10] = molecular target: Sodium-dependent noradrenaline transporter (Homo sapiens) (UniProt P23975); details: Compound concentration 10.0 uM
Sodium-dependent noradrenaline transporter (Homo sapiens), sequence (P23975 whole entry): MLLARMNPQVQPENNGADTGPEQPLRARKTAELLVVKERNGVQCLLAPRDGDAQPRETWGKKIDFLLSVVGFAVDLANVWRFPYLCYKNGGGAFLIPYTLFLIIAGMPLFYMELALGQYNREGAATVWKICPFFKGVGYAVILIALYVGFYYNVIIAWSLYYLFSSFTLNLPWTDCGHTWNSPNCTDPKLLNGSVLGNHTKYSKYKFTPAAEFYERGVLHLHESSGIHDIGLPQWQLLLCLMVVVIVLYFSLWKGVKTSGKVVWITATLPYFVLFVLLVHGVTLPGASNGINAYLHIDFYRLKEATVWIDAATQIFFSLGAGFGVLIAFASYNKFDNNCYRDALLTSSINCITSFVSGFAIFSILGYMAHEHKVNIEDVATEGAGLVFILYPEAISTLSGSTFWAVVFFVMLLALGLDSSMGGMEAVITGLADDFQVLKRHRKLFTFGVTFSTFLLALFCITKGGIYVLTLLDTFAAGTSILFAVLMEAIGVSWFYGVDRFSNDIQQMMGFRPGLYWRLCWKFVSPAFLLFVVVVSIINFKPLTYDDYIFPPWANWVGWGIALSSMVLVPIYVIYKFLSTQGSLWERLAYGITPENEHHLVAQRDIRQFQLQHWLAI

[11] = molecular target: T1, Alpha-2B adrenergic receptor (Homo sapiens); details: Compound concentration 10.0 uM
[12] = molecular target: Muscarinic acetylcholine receptor M3 (Homo sapiens, UniProt P20309); details: Compound concentration 10.0 uM
Muscarinic acetylcholine receptor M3, sequence (P20309 whole entry, looked up): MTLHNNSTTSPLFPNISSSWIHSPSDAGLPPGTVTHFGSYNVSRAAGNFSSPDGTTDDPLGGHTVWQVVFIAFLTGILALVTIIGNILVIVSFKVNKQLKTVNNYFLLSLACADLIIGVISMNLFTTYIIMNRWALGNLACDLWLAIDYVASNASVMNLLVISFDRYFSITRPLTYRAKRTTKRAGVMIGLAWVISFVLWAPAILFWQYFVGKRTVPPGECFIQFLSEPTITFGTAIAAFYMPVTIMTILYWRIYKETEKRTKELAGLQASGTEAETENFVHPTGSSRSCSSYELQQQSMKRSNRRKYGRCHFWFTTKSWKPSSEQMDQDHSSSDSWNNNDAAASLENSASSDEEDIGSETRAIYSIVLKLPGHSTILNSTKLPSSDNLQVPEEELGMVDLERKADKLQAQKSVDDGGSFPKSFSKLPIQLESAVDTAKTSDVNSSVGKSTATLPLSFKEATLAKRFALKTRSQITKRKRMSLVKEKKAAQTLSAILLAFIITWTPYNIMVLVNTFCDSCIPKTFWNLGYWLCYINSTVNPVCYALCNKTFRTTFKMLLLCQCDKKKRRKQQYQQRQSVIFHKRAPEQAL

Rattus norvegicus = organism: Rattus norvegicus; details: Compound concentration 10.0 uM
[13] = molecular target: Sigma non-opioid intracellular receptor 1 (Homo sapiens) (UniProt Q99720); details: Compound concentration 10.0 uM
Sigma non-opioid intracellular receptor 1 (Homo sapiens), sequence (Q99720 whole entry): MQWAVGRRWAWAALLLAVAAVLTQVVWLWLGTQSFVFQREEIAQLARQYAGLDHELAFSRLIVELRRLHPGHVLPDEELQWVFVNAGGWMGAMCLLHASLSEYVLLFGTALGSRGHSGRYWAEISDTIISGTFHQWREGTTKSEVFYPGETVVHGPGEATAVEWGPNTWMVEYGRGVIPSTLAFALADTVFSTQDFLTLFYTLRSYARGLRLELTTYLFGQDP

[14] = molecular target: Prostaglandin G/H synthase 1 (Homo sapiens) (UniProt P23219); test: COX-1 Eurofins SafetyScreen44 (BI); details: Compound concentration 10.0 uM
Prostaglandin G/H synthase 1 (Homo sapiens), sequence (P23219 whole entry): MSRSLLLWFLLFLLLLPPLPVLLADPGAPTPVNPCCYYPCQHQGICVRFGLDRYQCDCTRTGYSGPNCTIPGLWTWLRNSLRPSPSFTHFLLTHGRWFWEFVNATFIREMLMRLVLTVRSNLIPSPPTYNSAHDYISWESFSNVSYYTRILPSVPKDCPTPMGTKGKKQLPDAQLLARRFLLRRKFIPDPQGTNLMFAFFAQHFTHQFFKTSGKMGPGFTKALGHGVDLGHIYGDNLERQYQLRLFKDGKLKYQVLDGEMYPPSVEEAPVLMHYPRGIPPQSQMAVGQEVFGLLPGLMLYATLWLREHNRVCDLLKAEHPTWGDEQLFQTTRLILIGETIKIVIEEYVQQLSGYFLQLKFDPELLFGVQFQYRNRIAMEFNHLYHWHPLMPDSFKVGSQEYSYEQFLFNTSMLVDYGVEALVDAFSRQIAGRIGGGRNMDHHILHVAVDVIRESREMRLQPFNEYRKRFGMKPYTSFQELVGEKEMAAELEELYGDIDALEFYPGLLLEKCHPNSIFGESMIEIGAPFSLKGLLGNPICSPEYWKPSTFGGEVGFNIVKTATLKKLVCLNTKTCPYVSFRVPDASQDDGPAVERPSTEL

[15] = molecular target: Prostaglandin G/H synthase 2 (Homo sapiens) (UniProt P35354); test: COX-2 Eurofins SafetyScreen44 (BI); details: Compound concentration 10.0 uM
[16] = molecular target: T4, Alpha-2A adrenergic receptor (Homo sapiens) (UniProt P08913); test: ALPHA2A/HU Eurofins SafetyScreen44 (BI); details: Compound concentration 10.0 uM
T4 sequence (whole entry): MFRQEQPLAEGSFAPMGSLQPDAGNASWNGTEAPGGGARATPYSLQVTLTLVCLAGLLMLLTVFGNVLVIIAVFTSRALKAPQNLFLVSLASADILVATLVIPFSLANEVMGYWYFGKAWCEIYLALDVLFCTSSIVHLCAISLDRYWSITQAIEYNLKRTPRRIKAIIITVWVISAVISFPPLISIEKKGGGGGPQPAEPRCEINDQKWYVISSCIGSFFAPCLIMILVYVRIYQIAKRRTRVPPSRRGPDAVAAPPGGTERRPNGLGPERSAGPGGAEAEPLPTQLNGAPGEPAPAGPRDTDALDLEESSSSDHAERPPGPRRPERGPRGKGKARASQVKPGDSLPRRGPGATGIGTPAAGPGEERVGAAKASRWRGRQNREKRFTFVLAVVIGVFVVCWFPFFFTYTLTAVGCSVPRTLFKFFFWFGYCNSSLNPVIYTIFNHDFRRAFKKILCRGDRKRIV

[17] = molecular target: T2, Muscarinic acetylcholine receptor M1 (Homo sapiens); test: M1/H Eurofins SafetyScreen44 (BI); details: Compound concentration 10.0 uM
[18] = molecular target: D(4) dopamine receptor (Homo sapiens) (UniProt P21917); details: Compound concentration 10.0 uM
D(4) dopamine receptor (Homo sapiens), sequence (P21917 whole entry): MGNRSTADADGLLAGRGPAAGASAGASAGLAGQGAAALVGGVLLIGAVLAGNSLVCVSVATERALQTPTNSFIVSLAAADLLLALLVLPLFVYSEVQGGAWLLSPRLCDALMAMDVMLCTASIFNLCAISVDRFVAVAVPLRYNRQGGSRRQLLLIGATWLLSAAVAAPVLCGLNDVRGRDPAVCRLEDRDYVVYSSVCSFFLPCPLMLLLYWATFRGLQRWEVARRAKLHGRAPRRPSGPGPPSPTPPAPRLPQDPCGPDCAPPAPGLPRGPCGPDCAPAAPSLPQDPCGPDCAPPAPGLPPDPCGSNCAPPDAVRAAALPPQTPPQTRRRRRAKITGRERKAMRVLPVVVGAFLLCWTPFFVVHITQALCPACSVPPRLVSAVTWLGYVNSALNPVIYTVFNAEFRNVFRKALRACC

For `Cc1cc(OCCC(C)(C)O)cc(C)c1-c1ccc(F)c2c1CC[C@H]2Oc1ccc2c(c1)OC[C@H]2CC(=O)O`, the residual activity ([1]; Compound concentration 0.3 uM) was 97%, the residual activity ([1]; Compound concentration 1.0 uM) was 98% and the residual activity ([1]; Compound concentration 3.0 uM) was 103%. It also gave a residual activity ([1]; Compound concentration 10.0 uM) of 90%, a residual activity ([1]; Compound concentration 30.0 uM) of 75% and a residual activity [2] of 83%. It also gave a residual activity ([3]; Compound concentration 0.3 uM) of 90%, a residual activity ([3]; Compound concentration 1.0 uM) of 87% and a residual activity ([3]; Compound concentration 3.0 uM) of 68%. It also gave a residual activity ([3]; Compound concentration 10.0 uM) of 39%, a residual activity ([3]; Compound concentration 30.0 uM) of 17% and a residual activity [4] of 95%. It also gave a residual activity [5] of 83%, a residual activity [6] of 84% and a residual activity [7] of 87%. For the same molecule, the residual activity [8] was 105%, the inhibition [9] was 9.64% and the inhibition [10] was 9.38%. For the same molecule, the inhibition [11] was -1.99%, the inhibition [12] was 68.2% and the inhibition (Rattus norvegicus) was 40.4%. It also gave an inhibition [13] of 25.4%.

Work on `COCCCS(=O)(=O)c1cc(C)c(-c2ccc(F)c3c2CC[C@H]3Oc2ccc3c(c2)OC[C@H]3CC(=O)O)c(C)c1` yielded a residual activity [14] of 88%, a residual activity [15] of 81% and a residual activity [16] of 94%. The residual activity [17] was 112%, the inhibition [9] was 1.85% and the inhibition [18] was 12.9%. The inhibition [10] was 11.1%, the inhibition [11] was 3.95% and the inhibition [12] was -1.57%. For the same molecule, the inhibition (Rattus norvegicus) was 36.1% and the inhibition [13] was 15.2%.
